We go through eleven compounds from patent publication US10259808B2 (Genentech, Inc., priority 2015, dated 2019).

By IC50 is commonly meant the concentration that gives 50% inhibition.

The assay addresses T1, RORc ligand binding domain (Homo sapiens, UniProt P51449).
T1 sequence (P51449 269-508 limits assumed): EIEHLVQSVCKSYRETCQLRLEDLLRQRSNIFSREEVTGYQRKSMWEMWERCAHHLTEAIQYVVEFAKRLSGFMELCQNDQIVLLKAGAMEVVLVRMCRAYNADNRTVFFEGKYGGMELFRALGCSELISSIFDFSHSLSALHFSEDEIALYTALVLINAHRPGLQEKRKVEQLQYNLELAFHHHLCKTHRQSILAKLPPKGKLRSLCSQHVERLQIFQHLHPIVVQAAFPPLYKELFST
The assay is described as follows: In vitro RORc ligand binding assay (25-[3H]hydroxycholesterol displacement).
The compound `C[C@H]1CC[C@H](c2ccccc2)S(=O)(=O)N1Cc1cc(F)c(C2(C(=O)N3CCOCC3)CCOCC2)cc1F` [Example 37, [4-[2,5-difluoro-4-[[(3S,6R)-3-methyl-1,1-dioxo-6-phenyl-thiazinan-2-yl]methyl]phenyl]tetrahydropyran-4-yl]-morpholino-methanone] had an IC50 of 106 nM.

For `Cc1ccn(C(=O)C2(c3cc(F)c(CN4[C@@H](C)CC[C@H](c5ccccc5)S4(=O)=O)cc3F)CCOCC2)n1` [Example 38, [4-[2,5-difluoro-4-[[(3S,6R)-3-methyl-1,1-dioxo-6-phenyl-thiazinan-2-yl]methyl]phenyl]tetrahydropyran-4-yl]-(3-methylpyrazol-1-yl)methanone], the IC50 was 35 nM. Turning to `C[C@H]1CC[C@H](c2ccccc2)S(=O)(=O)N1Cc1cc(F)c(C2(C(=O)n3cccn3)CCOCC2)cc1F` [Example 39, [4-[2,5-difluoro-4-[[(3S,6R)-3-methyl-1,1-dioxo-6-phenyl-thiazinan-2-yl]methyl]phenyl]tetrahydropyran-4-yl]-pyrazol-1-yl-methanone], the IC50 amounted to 27.3 nM.

With `C[C@H]1CC[C@H](c2ccccc2)S(=O)(=O)N1Cc1ccc(C2(Cn3cnnc3)CCOCC2)cc1F` [Example 40, (3S,6R)-2-[[2-fluoro-4-[4-(1,2,4-triazol-4-ylmethyl)tetrahydropyran-4-yl]phenyl]methyl]-3-methyl-6-phenyl-thiazinane 1,1-dioxide], the IC50 stood at 118 nM.

Compound `Cc1nnc(NCC2(c3ccc(CN4[C@@H](C)CC[C@H](c5ccccc5)S4(=O)=O)c(F)c3)CCOCC2)o1` [Example 41, N-[[4-[3-fluoro-4-[[(3S,6R)-3-methyl-1,1-dioxo-6-phenyl-thiazinan-2-yl]methyl]phenyl]tetrahydropyran-4-yl]methyl]-5-methyl-1,3,4-oxadiazol-2-amine] yielded an IC50 of 41.8 nM.

For the compound `C[C@H]1CC[C@H](c2ccccc2)S(=O)(=O)N1Cc1ccc(C2(c3nnco3)CCOCC2)cc1F` [Example 42, (3S,6R)-2-[[2-fluoro-4-[4-(1,3,4-oxadiazol-2-yl)tetrahydropyran-4-yl]phenyl]methyl]-3-methyl-6-phenyl-thiazinane 1,1-dioxide], the IC50 came to 54.6 nM. For `Cc1nnc(C2(c3ccc(CN4[C@@H](C)CC[C@H](c5ccccc5)S4(=O)=O)c(F)c3)CCOCC2)o1` [Example 43, (3S,6R)-2-[[2-fluoro-4-[4-(5-methyl-1,3,4-oxadiazol-2-yl)tetrahydropyran-4-yl]phenyl]methyl]-3-methyl-6-phenyl-thiazinane 1,1-dioxide] the value was 142 nM. For `C[C@H]1CC[C@H](c2ccccc2)S(=O)(=O)N1Cc1ccc(C2(c3nnc(CO)o3)CCOCC2)cc1F` [Example 44, [5-[4-[3-fluoro-4-[[(3S,6R)-3-methyl-1,1-dioxo-6-phenyl-thiazinan-2-yl]methyl]phenyl]tetrahydropyran-4-yl]-1,3,4-oxadiazol-2-yl]methanol] the value was 102 nM; for `C[C@H]1CC[C@H](c2ccccc2)S(=O)(=O)N1Cc1ccc(C2(n3cnnc3)CCOCC2)cc1F` [Example 45, (3S,6R)-2-[[2-fluoro-4-[4-(1,2,4-triazol-4-yl)tetrahydropyran-4-yl]phenyl]methyl]-3-methyl-6-phenyl-thiazinane 1,1-dioxide], 87.7 nM; for `C[C@H]1CC[C@H](c2ccccc2)S(=O)(=O)N1Cc1ccc(C2(c3nnc[nH]3)CCOCC2)cc1F` [Example 46, (3S,6R)-2-[[2-fluoro-4-[4-(4H-1,2,4-triazol-3-yl)tetrahydropyran-4-yl]phenyl]methyl]-3-methyl-6-phenyl-thiazinane 1,1-dioxide], 26.6 nM. The compound `Cc1nnc(C2(c3ccc(CN4[C@@H](C)CC[C@H](c5ccccc5)S4(=O)=O)c(F)c3)CCOCC2)[nH]1` [Example 47, (3S,6R)-2-[[2-fluoro-4-[4-(5-methyl-4H-1,2,4-triazol-3-yl)tetrahydropyran-4-yl]phenyl]methyl]-3-methyl-6-phenyl-thiazinane 1,1-dioxide] displayed an IC50 of 114 nM.
